# Source: PubChem BioAssay (NCI)
#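 A five-concentration, 48-hour dose response in 96-well plates underlies each endpoint, interpolated linearly between surrounding concentrations. TGI: total growth inhibition.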
# Tests used:
# Assay in all cases: NCI tumour cell line growth inhibition, 48 h
# [1] = system: SF-295 CNS
# [2] = system: HCT-15 colon
# [3] = system: HL-60(TB) leukemia
# [4] = system: K-562 leukemia
# [5] = system: BT-549 breast
# [6] = system: HOP-92 NSCLC
# [7] = system: RXF 393 renal
# [8] = system: NCI/ADR-RES ovarian
# [9] = system: IGROV1 ovarian
# [10] = system: A549 NSCLC
# [11] = system: RPMI-8226 leukemia
# [12] = system: SN12C renal
# [13] = system: NCI-H522 lung
# [14] = system: TK-10 renal
# [15] = system: SK-MEL-2 melanoma
# [16] = system: HOP-62 NSCLC
# [17] = system: SNB-75 CNS
# [18] = system: HCC-2998 colon
# [19] = system: SNB-19 CNS
# [20] = system: 786-0 renal
# [21] = system: M14 melanoma
# [22] = system: SF-539 CNS
# [23] = system: SF-268 CNS
# [24] = system: SK-MEL-28 melanoma
# [25] = system: OVCAR-5 ovarian
# [26] = system: MCF7 breast
# [27] = system: UACC-62 melanoma
# [28] = system: HT29 colon
# [29] = system: LOX IMVI melanoma
# [30] = system: PC-3 prostate
# [31] = system: NCI-H460 lung
# [32] = system: KM12 colon
# [33] = system: CCRF-CEM leukemia
# [34] = system: MALME-3M melanoma
# [35] = system: A498 renal
# [36] = system: EKVX NSCLC
# [37] = system: COLO 205 colon
# [38] = system: SW-620 colon
# [39] = system: SK-OV-3 ovarian
# [40] = system: UACC-257 melanoma
# [41] = system: SK-MEL-5 melanoma
# [42] = system: HCT-116 colon
# [43] = system: ACHN renal
# [44] = system: OVCAR-4 ovarian
# [45] = system: U251 CNS
# [46] = system: MOLT-4 leukemia
# [47] = system: MDA-N
# [48] = system: OVCAR-8 ovarian
# [49] = system: NCI-H226 lung
# [50] = system: CAKI-1 renal
# [51] = system: MDA-MB-231 breast
compound,measurement,setting,value
COc1ccc(-c2c(C#N)c(S)n(NS(=O)(=O)c3ccc(C)cc3)c(=O)c2C#N)cc1,TGI,[1],> 100 µM
same,TGI,[2],32.4 µM
same,TGI,[3],33.2 µM
same,TGI,[4],47.2 µM
same,TGI,[5],32.5 µM
same,TGI,[6],> 100 µM
same,TGI,[7],42.5 µM
same,TGI,[8],58.9 µM
same,TGI,[9],33.9 µM
same,TGI,[10],> 100 µM
same,TGI,[11],15.4 µM
same,TGI,[12],34.8 µM
same,TGI,[13],33.7 µM
same,TGI,[14],> 100 µM
same,TGI,[15],32.1 µM
same,TGI,[16],> 100 µM
same,TGI,[17],> 100 µM
same,TGI,[18],> 100 µM
same,TGI,[19],> 100 µM
same,TGI,[20],31.7 µM
same,TGI,[21],52.9 µM
same,TGI,[22],29.8 µM
same,TGI,[23],88 µM
same,TGI,[24],63.2 µM
same,TGI,[25],60.7 µM
same,TGI,[26],> 100 µM
same,TGI,[27],31.5 µM
same,TGI,[28],> 100 µM
same,TGI,[29],29.8 µM
same,TGI,[30],67.5 µM
same,TGI,[31],> 100 µM
same,TGI,[32],77.5 µM
same,TGI,[33],26.8 µM
same,TGI,[34],> 100 µM
same,TGI,[35],> 100 µM
same,TGI,[36],68.3 µM
same,TGI,[37],44.6 µM
same,TGI,[38],34.7 µM
same,TGI,[39],> 100 µM
same,TGI,[40],> 100 µM
same,TGI,[41],30 µM
same,TGI,[42],28 µM
same,TGI,[43],41.3 µM
same,TGI,[44],> 100 µM
same,TGI,[45],> 100 µM
same,TGI,[46],34.3 µM
same,TGI,[47],37.5 µM
same,TGI,[48],74.8 µM
same,TGI,[49],89.5 µM
same,TGI,[50],> 100 µM
same,TGI,[51],42.7 µM
